Literature values in patent US20040067947A1, “Method of preventing or treating atherosclerosis or restenosis” (priority 2002, published 2004).

System: CMV infection of rats
Details: rats infected with CMV; DHPG prophylaxis; Lemstrom et al., Circulation 1994, 90:1969-1978

In the case of Nc1nc(O)c2ncn(COC(CO)CO)c2n1 [Ganciclovir], the “prevention of atherosclerosis resulting from CMV infection” value is given as “prevent atherosclerosis”.
